Experimental data: patent US11008346B2, “Beta-lactamase inhibitors” (priority 2014, dated 2021)

What was measured:
p99 AmpC β-lactamase = target: T1, p99 AmpC β-lactamase (Enterobacter cloacae, UniProt P05364); test: β-lactamase enzyme inhibition, p99 AmpC; assay type: biochemical
T1 construct: made in house; host or cells: E. coli BL21(DE3)
Experimental: (§1) For SHV-5, Kpc-2, p99AmpC and OXA-1 β-lactamases, E. coli BL21(DE3) bacterial cells carrying expression plasmids (expressed as native untagged proteins) for the individual β-lactamases were grown in 1 L of Superbroth (Teknova Inc. Hollister, Calif.) supplemented with 100 μg/ml kanamycin selection and 1×5052 (0.5% glycerol, 0.05% glucose and 0.2% α-lactose) at 35° C. for 18-20 hours. Cells were harvested by centrifugation (4,000×g, 4° C., 20 min), resuspended in 50 ml of 10 mM HEPES pH 7.5 ( 1/20 of the initial volume). The cells were lysed by sonication (5 pulses of 45 seconds) at 45 W on ice. The lysates were clarified by centrifugation at 10,000×g for 40 minutes at 4° C. Samples were diluted 5-fold in 50 mM sodium acetate pH 5.0, stored overnight at 4° C., after which they were centrifuged at 10,000×g for 30 minutes to clarify, and filtered through 0.45 μm filters. The samples were loaded onto a 5 ml Capto S sepharose cation exchange column (GE Healthcare) pre-equilibrated with 50 mM sodium acetate pH 5.0. The column was washed with 5 column volumes of 50 mM sodium acetate pH 5.0 to wash out unbound protein and a linear gradient of NaCl (0 to 500 mM) was used to elute the protein (over 16 CV) from the column. Fractions were assayed for […] activity using Centa (Calbiochem, Gibbstown, N.J.) or Nitrocefin (EMD Millipore chemicals, Darmstadt, Germany) as a reporter β-lactamase substrate for activity in the isolated fractions. Active fractions were pooled, concentrated and further purified by gel filtration chromatography on a Superdex 75 prep grade gel filtration column (GE Healthcare, Piscataway, N.J.) pre-equilibrated in 50 mM Hepes pH 7.5, 150 mM NaCl. Active fractions were pooled, concentrated, and quantitated by BCA protein determination (Thermo Scientific, Rockford, Ill.), dialyzed into PBS and frozen at −80° C. in 20% glycerol until use.
(§2) An equal volume of diluted enzyme stock was added, and the plates were incubated at 37° C. for 15 min. Nitrocefin was used as substrate for p99 AmpC, VIM-2 and OXA-1 and dispensed into each well at a final concentration of 100 μM. Absorbance at 486 nm was immediately monitored for 10 min using a Biotek Powerwave XS2 microplate spectrophotometer using the GEN5 software package (Biotek Instruments, Winooski Vt.). In an analogous fashion, imipenem was used as substrate for KPC-2 and Cefotaxime was used for SHV-5, while changes in absorbance upon hydrolysis of the β-lactam ring were monitored at 300 nm and 260 nm respectively in UV-transparent 96-well microtiter assay plates. Maximum rates of hydrolysis were compared to those in control wells (without inhibitors), and percentages of enzyme inhibition were calculated for each concentration of inhibitor. The concentration of inhibitor needed to reduce the initial rate of hydrolysis of substrate by 50% (IC50) was calculated as the residual activity of β-lactamase at 486 nm using GraFit version 7 kinetics software package (Erithacus Software, Surrey, UK).
Using the methodology described above, examples of the current invention were evaluated for their ability to inhibit β-lactamase enzymes from all four Ambler classifications (A through D).

[1] = tested on: E. coli ESBL4 expressing CTX-M-15; test: broth microdilution MIC, E. coli CTX-M-15; assay type: cell-based; details: for MIC of exemplary compounds in presence of fixed β-lactams, E. coli ESBL4 CTX-M-15: Fixed CAZ (ceftazidime) 4 μg/mL
Text: (§3) To determine the ability of test compounds to potentiate the inhibition of the growth of bacterial strains that produce beta-lactamase enzymes, classic cell based broth microdilution MIC assays were employed. Six bacteria strains producing beta-lactamase enzymes were used: E. coli expressing the Class A Extended Spectrum Beta-Lactamase (ESBL) CTX-M-15, E. cloacae expressing the Class C P99, K. pneumoniae expressing the Class A carbapenemase KPC-3, P. aeruginosa expressing the Class B carbapenemase VIM-2, K pneumoniae expressing the class A carbapenemase KPC-2 and the class B carbapenemase VIM-4, and S. aureus producing the Class A penicillinase PC-1. The assay was conducted in Cation Adjusted Mueller Hinton Broth (CAMHB, BD #212322, BD Diagnostic Systems, Sparks, Md.). Bacteria strains were grown for 3-5 hours in CAMBH broth. Test compounds were added to a microtiter plate in 2-fold serial dilutions in CAMHB in a final concentration range of 32 μg/mL to 0.25 μg/ml. An overlay of CAMHB containing a Beta-lactam was added to the compounds at a final static concentration of 4 μg/ml. […] In addition to the titration of test compounds the MICs of a panel of control beta-lactams is also tested to ensure the strains are behaving consistently from test to test. Once the test compound and antibiotics are added the plates can be inoculated according to CLSI broth microdilution method. After inoculation the plates are incubated for 16-20 hours at 37° C., then the Minimal Inhibitory Concentration (MIC) of the test compound is determined visually.
(§4) Using the methodology described above, examples of the current invention were evaluated for their ability to inhibit the growth of β-lactamase-producing bacteria in the presence of a β-lactam antibiotic.
(§5) Representative results are shown in Table 4 where A represents an MIC of the fixed β-lactam antibiotic in the presence of >32 µg/mL of a β-lactamase inhibitor of exemplary compounds, B represents the MIC in the presence of between 8 and 32 µg/mL of a β-lactamase inhibitor of exemplary compounds, and C represents the MIC in the presence of ≤4 µg/mL of a β-lactamase inhibitor of exemplary compounds. NT=Not Tested.

KPC-2 β-lactamase = target: T2, KPC-2 β-lactamase (Klebsiella pneumoniae, UniProt Q9F663); test: β-lactamase enzyme inhibition, KPC-2; assay type: biochemical; details: imipenem substrate, 300 nm; 15 min at 37° C. preincubation; read-out: IC50 KPC-2 (Class A)
T2 construct: made in house; host or cells: E. coli BL21(DE3)
T2 sequence (Q9F663 25-293, looked up): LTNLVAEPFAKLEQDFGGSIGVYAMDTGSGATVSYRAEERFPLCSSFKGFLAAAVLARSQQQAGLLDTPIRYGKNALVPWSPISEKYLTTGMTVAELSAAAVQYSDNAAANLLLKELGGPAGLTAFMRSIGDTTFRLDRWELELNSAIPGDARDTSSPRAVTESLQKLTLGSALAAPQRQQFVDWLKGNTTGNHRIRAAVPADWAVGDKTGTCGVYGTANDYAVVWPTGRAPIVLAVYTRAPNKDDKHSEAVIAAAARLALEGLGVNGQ
Experimental: as §1, §2
(§6) Using the methodology described above, examples of the current invention were evaluated for their ability to inhibit β-lactamase enzymes from all four Ambler classifications (A through D). […] NT=Not tested.

SHV-5 β-lactamase = target: T3, SHV-5 β-lactamase (Klebsiella pneumoniae, UniProt P0A3M1); test: β-lactamase enzyme inhibition, SHV-5; assay type: biochemical
T3 construct: made in house; host or cells: E. coli BL21(DE3)
T3 sequence (P0A3M1 22-286): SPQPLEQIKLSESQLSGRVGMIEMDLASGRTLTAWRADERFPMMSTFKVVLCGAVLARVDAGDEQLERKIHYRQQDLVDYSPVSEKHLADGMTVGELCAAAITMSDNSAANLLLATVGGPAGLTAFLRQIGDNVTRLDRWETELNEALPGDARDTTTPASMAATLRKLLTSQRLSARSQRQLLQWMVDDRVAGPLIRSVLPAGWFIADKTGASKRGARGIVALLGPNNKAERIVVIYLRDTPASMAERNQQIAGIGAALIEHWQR
Experimental: as §1, §2, §6

[2] = tested on: K. pneumoniae 156319 expressing KPC-3; test: broth microdilution MIC, K. pneumoniae KPC-3; assay type: cell-based; details: Fixed Mero (meropenem) 4 μg/mL
Text: as §3, §4, §5

[3] = tested on: E. cloacae 144200 expressing Class C P99 AmpC; test: broth microdilution MIC, E. cloacae P99; assay type: cell-based; details: for MIC of exemplary compounds in presence of fixed β-lactams, E. cl. 144200 p99 AmpC: Fixed CAZ (ceftazidime) 4 μg/mL
Text: as §3, §4, §5

[4] = tested on: K. pneumoniae A-1797 expressing KPC-2 and VIM-4; test: broth microdilution MIC, K. pneumoniae KPC-2 and VIM-4; assay type: cell-based; details: Fixed Mero (meropenem) 4 μg/mL
Text: as §3, §4, §5

[5] = target: T4, VIM-2 metallo β-lactamase (Pseudomonas aeruginosa, UniProt Q9K2N0); test: β-lactamase enzyme inhibition, VIM-2; assay type: biochemical; details: Nitrocefin 100 μM, 486 nm; 15 min at 37° C. preincubation; read-out: IC50 VIM-2 (Class B)
T4 construct: made in house; host or cells: E. coli BL21(DE3)
Experimental: For VIM-2 metallo β-lactamase, the procedure was identical with the following exceptions, first the protein was not pH adjusted to pH 5 with 50 mM sodium acetate. Second, the chromatography step was changed to a 5 ml Q sepharose anion exchange column pre-equilibrated with 50 mM Hepes pH 7.5, and elution of the protein was achieved by a linear gradient of NaCl (0-600 mM). Finally, the VIM-2 purification required a second run (3rd step) on the Q sepharose anion exchange column to achieve acceptable purity (>90%).
as §2, §6

T1 sequence (P05364 21-381): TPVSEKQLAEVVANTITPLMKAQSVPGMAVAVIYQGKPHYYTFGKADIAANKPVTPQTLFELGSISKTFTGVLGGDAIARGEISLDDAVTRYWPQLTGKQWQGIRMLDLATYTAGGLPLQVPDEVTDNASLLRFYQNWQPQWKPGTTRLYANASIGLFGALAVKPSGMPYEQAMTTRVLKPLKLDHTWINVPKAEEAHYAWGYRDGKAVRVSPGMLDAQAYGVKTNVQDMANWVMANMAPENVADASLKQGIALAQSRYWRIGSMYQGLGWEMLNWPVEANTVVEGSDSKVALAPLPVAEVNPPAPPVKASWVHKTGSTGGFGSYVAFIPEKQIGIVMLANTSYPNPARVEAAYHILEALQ

| SMILES | IC50 (p99 AmpC β-lactamase) | MIC of exemplary compounds in presence of fixed β-lactams, E. coli ESBL4 CTX-M-15 [1] | IC50 (KPC-2 β-lactamase) | IC50 (SHV-5 β-lactamase) | MIC of exemplary compounds in presence of fixed β-lactams, K.P. 156319 KPC-3 [2] | MIC of exemplary compounds in presence of fixed β-lactams, E. cl. 144200 p99 AmpC [3] | MIC of exemplary compounds in presence of fixed β-lactams, K.P. A-1797 KPC-2 VIM-4 [4] | IC50 [5] | MIC ([1]; Escherichia coli, read-out: MIC alone) | MIC alone ([3]; partner antibiotic alone, E. cloacae expressing Class C P99) |
| --- | --- | --- | --- | --- | --- | --- | --- | --- | --- | --- |
| O=C(Cc1ccncc1)N[C@H]1Cc2cccc(C(=O)O)c2OB1O [Example 65, (R)-2-Hydroxy-3-(2-pyridin-4-yl-acetylamino)-3,4-dihydro-2H-benzo[e][1,2]oxaborinine-8-carboxylic acid] | < 100 nM | C (C represents the MIC in the presence of ≤4 g/mL of a β-lactamase inhibitor) | < 100 nM | < 100 nM | C (C represents the MIC in the presence of ≤4 g/mL of a β-lactamase inhibitor) | C (C represents the MIC in the presence of ≤4 g/mL of a β-lactamase inhibitor) | C (C represents the MIC in the presence of ≤4 g/mL of a β-lactamase inhibitor) | – | – | – |
| CNS(=O)(=O)CCC(=O)N[C@H]1Cc2cccc(C(=O)O)c2OB1O [Example 54, (R)-2-Hydroxy-3-(3-methylsulfamoyl-propionylamino)-3,4-dihydro-2H-benzo[e][1,2]oxaborinine-8-carboxylic acid] | < 100 nM | C (C represents the MIC in the presence of ≤4 g/mL of a β-lactamase inhibitor) | < 100 nM | < 100 nM | C (C represents the MIC in the presence of ≤4 g/mL of a β-lactamase inhibitor) | C (C represents the MIC in the presence of ≤4 g/mL of a β-lactamase inhibitor) | B (B represents the MIC in the presence of between 8 and 32 g/mL of a β-lactamase inhibitor) | 1000 to 10000 nM | – | – |
| CS(=O)(=O)CCCC(=O)N[C@H]1Cc2cccc(C(=O)O)c2OB1O [Example 59, (R)-2-Hydroxy-3-(4-methanesulfonyl-butyrylamino)-3,4-dihydro-2H-benzo[e][1,2]oxaborinine-8-carboxylic acid] | < 100 nM | C (C represents the MIC in the presence of ≤4 g/mL of a β-lactamase inhibitor) | < 100 nM | < 100 nM | C (C represents the MIC in the presence of ≤4 g/mL of a β-lactamase inhibitor) | – | B (B represents the MIC in the presence of between 8 and 32 g/mL of a β-lactamase inhibitor) | 1000 to 10000 nM | – | – |
| CC(O)CCC(=O)N[C@H]1Cc2cccc(C(=O)O)c2OB1O (stereo partly drawn) [Example 63, (R)-2-Hydroxy-3-(4-hydroxy-pentanoylamino)-3,4-dihydro-2H-benzo[e][1,2]oxaborinine-8-carboxylic acid] | – | C (C represents the MIC in the presence of ≤4 g/mL of a β-lactamase inhibitor) | – | – | C (C represents the MIC in the presence of ≤4 g/mL of a β-lactamase inhibitor) | C (C represents the MIC in the presence of ≤4 g/mL of a β-lactamase inhibitor) | B (B represents the MIC in the presence of between 8 and 32 g/mL of a β-lactamase inhibitor) | – | – | – |
| CS(=O)(=O)NCCCC(=O)N[C@H]1Cc2cccc(C(=O)O)c2OB1O [Example 57, (R)-2-Hydroxy-3-(4-methanesulfonylamino-butyrylamino)-3,4-dihydro-2H-benzo[e][1,2]oxaborinine-8-carboxylic acid] | < 100 nM | C (C represents the MIC in the presence of ≤4 g/mL of a β-lactamase inhibitor) | < 100 nM | < 100 nM | C (C represents the MIC in the presence of ≤4 g/mL of a β-lactamase inhibitor) | – | B (B represents the MIC in the presence of between 8 and 32 g/mL of a β-lactamase inhibitor) | 1000 to 10000 nM | – | – |
| CNS(=O)(=O)CCCC(=O)N[C@H]1Cc2cccc(C(=O)O)c2OB1O [Example 58, (R)-2-Hydroxy-3-(4-methylsulfamoyl-butyrylamino)-3,4-dihydro-2H-benzo[e][1,2]oxaborinine-8-carboxylicacid] | < 100 nM | C (C represents the MIC in the presence of ≤4 g/mL of a β-lactamase inhibitor) | < 100 nM | < 100 nM | C (C represents the MIC in the presence of ≤4 g/mL of a β-lactamase inhibitor) | – | B (B represents the MIC in the presence of between 8 and 32 g/mL of a β-lactamase inhibitor) | 1000 to 10000 nM | – | – |
| CC(C)(O/N=C(\C(=O)N[C@@H]1C(=O)N2C(C(=O)[O-])=C(C[n+]3ccccc3)CS[C@H]12)c1csc(N)n1)C(=O)O [Ceftazidime, ceftazidime, reference compound] | – | – | – | – | – | – | – | – | > 128 µg/mL | 128 µg/mL |
